In one data set the test system is TA-VSMCs. Kind of data set: [3H]thymidine labeling (DNA synthesis) in TA-VSMCs. It counts as cell-based. An excerpt:
Effect of calcium channel activation on DNA synthesis. Effect of glutamate receptor calcium channels and L-type calcium channels activation was examined by measuring [^3H]thymidine labeling.

Data set [1] relates to c-myb. The experiment in a line: c-myb expression in N-VSMC (RT-PCR, immunoprecipitation and western blot). It counts as cell-based, chicken. The note with it: for effect on homocysteine-induced c-myb induction: 200 μM H[cys], 50 μM Mk-801 or 1 mM CGS19755, 24 hours. As for the experimental part:
FIGS. 3A, 3B and 3C are RNA blot analyses of c-fos and c-myb mRNA isolated from N-VSMC cultures. Cultures were incubated in the absence and presence of 200μM H[cys] for 0, (lane 1); 15 min, (lane 2); 30 min, (lane 3); 45 min, (lane 4) and 60 min, (lane 5); and analyzed for c-fos expression. In FIG. 3B, the time course of c-myb MRNA induction in the presence of 200μM H[cys] for 0 h, (lane 1); 8 h, (lane 2); 16 h, (lane 3); 24 h, (lane 4). The c-fos transcripts were analyzed by northern blot and normalized to β actin expression. The amount of c-myb mRNA levels were normalized to estrogen receptor (ER) transcripts as determined by RT-PCR. […] The amount of c-myb mRNA levels were normalized to estrogen receptor (ER) transcripts as determined by RT-PCR. The amount of specific radiolabeling in the autoradiograph was quantified by scanning densitometry. The size of the c-Myb protein is 75 kilodaltons. The 75 kilodalton band is defined as c-Myb because immunoprecipitation of this protein was not detected in the presence of synthetic polypeptide [[…] encoded by sequences 1080-1133].
FIG. 4 is a graph illustrating the analysis of c-myb synthesis in response to NMDA receptor antagonist, Mk-801 and CGS19755. Immunoprecipitation and western blotting of radiolabeled c-Myb from N-VSMC treated with 200μMH[cys] in the presence and absence of 50 μM Mk-801 or 1 mM CGS19755. Cell cultures were treated with and without H[cys] for 24 hours, extracts were immunoprecipitated with anti c-myb IgG and samples were separated by SDS-PAGE gels and western blotted. The amount of specific radiolabeling in the autoradiograph was quantified by scanning densitometry. The size of the c-Myb protein is 75 kilodaltons. The 75 kilodalton band is defined as c-Myb because immunoprecipitation of this protein was not detected in the presence of synthetic polypeptide [I13-[…] encoded by sequences 1080-1133].
RNA Blot Analysis: Total RNA was isolated from VSMC derived from thoracic and abdominal aorta by homogenization, and lysis with guanidinium isothiocyanate was followed by phenol-chloroform extraction. Ten micrograms of total RNA per lane was separated in a 1.5% agarose-formaldehyde gel, and the RNA was transferred by capillary transfer to a 0.45 μm nylon membrane. Filters were hybridized as previously with cDNAs labeled with [^32P]deoxycytidine5′-triphosphate to specific activities of approximately 2×10^9 cpm/μg using a random prime labeling kit (Boehringer Mannheim Biochemicals, Indianapolis, Ind.). The probes included chicken c-fos, Bactin, estrogen receptor (ER) and c myb.
Reverse Transcriptase-Polymerase Chain Reaction: Reverse transcription of 4 to 10,000 nanograms (ng) of RNA using 10 picomoles (pm) of hexamer primers was performed for 90 minutes (min) at 37° C. using 200 units superscript reverse transcriptase (Gibco BRL), in 50 mM Tris, pH, 8.2, 75 Mm KC1, 3 mM MgCl2, 10 mM dithiothreitol (DTT), 1 unit/μ1 RNasin (Promega), and 1 mM each of DATP, dCTP, dGTP, and dTTP. The samples were heated at 95° C. for 5 min to terminate the reverse transcription. The resulting cDNA was treated with 1 unit of […] at 37° C. for 20 min. A 5% fraction of the cDNA was subjected to PCR using c-myb upstream (5′ggTCCTTTgAAgATgCTgCC3′) and downstream(5′[…]gAgTCCgggTTg3′) primers; estrogen receptor (ER) (5′ggACTgCCAgCTgCCgATCTT3′) and (5′CTCACgAATgTggCgCCT3′) primers; β actin (5′AAgAggTAATCCTgACCCCTgAA3′) and (5′ACCCTgACCATCAgggAgTTCA3′) primers. PCR was performed using 0.25 μM of each primer, 3 μM cDNA, 0.2 mM of each deoxynucleotide triphosphate, 75 mM KC1, 1.5 mM MgCl2 and 0.5 unit Taq polymerase (Perkin Elmer; Cetus) in 10 mM Tris-HC1, pH 8.3 with total volume of 100 μl. […] PCR products were analyzed by electrophoresis in 1.5% agarose gels stained with ethidium bromide. PCR amplifications of all target templates and controls were run in parallel or on the same sample. […]
For orientation: In western blotting, separated proteins are transferred to a membrane and probed.

Data set [2] relates to c-myb. The experiment in a line: c-myb expression in TA-VSMCs. Format: cell-based. The note with it: NMDA receptor blockers.
Data set [3] concerns N-VSMC. The experiment in a line: Cell proliferation (cell number) of N-VSMC cultures. It counts as cell-based, chicken. To be noted: for effect on increase in cell number in the presence of H[cys]: 1% FBS and 100 μM H[cys]; for cell damage after treatment for ten days: low levels of PKC inhibitors, growth after removal. As to the method: FIGS. 5A and 5B are graphs illustrating cell growth and DNA synthesis of N-VSMC cultures. (A) Cells were cultured in M199 supplemented with 1% FBS in the presence and absence of 100 μM H[cys]. The medium was renewed every three days and cell numbers were determined by Coulter counter or emocytometer. Each point represents the mean of quadruplicate samples counted six times. (B) Cells were grown to confluency, growth arrested in M199 and 1 μg/ml of bovine serum albumin for two days. Cultures were exposed to various concentrations of H[cys] (0.01-1000 μM) for 30 h, pulse labeled for 6 h with 2 μCi/ml of [^3H]thymidine. The amount of [^3H]thymidine incorporation was determined by scintillation spectrophotometry. Results are shown as the mean of ±S.E.M.
FIGS. 7A-7C are graphs illustrating the effect of H[cys] on diacylglycerol content in N-VSMC. (A) Time course of changes of membrane diacylglycerol content cell treated with 100μM H[cys] for the various times. Cells were recovered, membrane lipids extracted and diacylglycerol amounts determined as described in Methods. Results are expressed as the mean ± standard error of quadruplicate incubations from six independent experiments. (B) Effects of varying concentrations of H[cys] on diacylglycerol synthesis. Cells were treated for 30 min with different concentrations of H[cys] and membrane lipids were isolated and the diacylglycerol content determined. (C) Effect of PKC inhibitors on H[cys] mediated cell proliferation. N-VSMC cultures were grown in 1% FBS and 100 μM H[cys] in the presence and absence of staurosporine and cheleyrithrine chloride for the times (days-d) indicated. Cells were counted in quadruplicate in a Coulter counter every three days. Values represent the mean ±S.D. from four independent experiments.
(§1) Smooth Muscle Culture: The thoracic (N) and abdominal (M) aorta of normal 16 and 18-day embryos were cleaned of fat, and the intima-media was isolated from the adventitia. The intima-media was enzymatically dispersed into a single cell suspensions by a combination of collagenase and elastase followed by trypsin. VSMC were placed in primary culture at a constant density of 2×10^4 cells/cm^2 in multiwell plates or 100 mm culture plates in Medium 199 supplemented with 10% fetal bovine serum (FMS) and 2 mM glutamine, in an atmosphere of 95% air: 5% Co2 at 37° C. Primary cultures were grown for 7 days before they were seeded into first passage at the same cell density and grown to confluence. Experiments were carried out between passages 3-6. Experimental conditions for all cells included 48 h in Medium 199 supplemented with 1% FBS prior to initiating and experiment.

The subject of another data set is VSMC. To be noted: low concentrations.
Data set [4] relates to N-VSMC. Kind of data set: [3H]thymidine incorporation (DNA synthesis) in N-VSMC cultures. Format: cell-based, chicken. As to the method: FIG. 1 is a graph illustrating homocysteine's effects on the growth of VSMC cultures. Confluent N-VSMC cultures were growth arrested by incubating cells with M199 medium containing 1 μg/ml BSA for 48 h, exposed to various concentrations of H[cys] (0.01-4000μM) for 30 h, pulse labeled for 6 h with 2 μCi/ml [^3H]-thymidine, and cell monolayers were washed twice with cold (0° C.) 10% trichloroacetic acid (TCA). The amount of [^3H]-thymidine incorporation was determined by scintillation spectrophotometry. Results are shown as the means of ±S.D.
FIGS. 2A-2C are graphs illustrating the effects of glutamate, homocysteic acid and NMDA on DNA synthesis in N-VSMC. N-VSMC were cultured and serum-deprived as described in “Experimental Procedures.” Cultures were treated with various concentrations of homocysteic acid (2A), NMDA (2B), or L-glutamate (2C) for 30 and pulsed 6h with [^3H] thymidine. All values are expressed as ±S.D. of six independent experiments completed in quadruplicate.
as §1
DNA Synthesis: Growth factors were added directly to quiescent VSMCs in Medium 199 as described above. The cells were pulsed between 4-6 h with a final concentration of 2-5 μCi/ml [^3H]thymidine added at the times and for the periods indicated in the figure legends. The cells were washed, and the incorporation of [^3H]thymidine into acid insoluble material was determined as previously described. Den-Heijer, M. et al. (1996), Hyperhomocystinemia as a risk factor for deep-vein thrombosis. N. Eng. J. Med. 334(12):759-762.
For orientation: Incorporation of labelled thymidine or its analogues reports DNA synthesis.

For data set [5], the system named is Thoracic aorta VSMC from E14 embryos. Kind of data set: Intracellular Ca++ by Fura 2 fluorometry. To be noted: 15 min pretreatment. It counts as cell-based, chicken. As for the experimental part: FIGS. 8A and 8B are graphs illustrating E14 embryonic neural crest-derived response to Hcy. (A) Normal E14 cell response; (B) Ca++ influx is prevented by 15 min pretreatment with NMDA receptor blocker MK801, which acts at the NMDA receptor calcium channel.
The most common signaling device for mitosis is calcium influx. Therefore, the inventors measured the change in intracellular Ca^++ by Fura 2 fluorometry. Thoracic aorta VSMC from E14 embryos were harvested and grown on coverslips using the procedure set forth above. Fura 2 was added during 45 minutes at room temperature. Then the cover slips were placed in a photometer. Fura 2 was excited at 350 and 380 nm with a xenon light source, appropriate monochromators and a chopper (Deltascan, Princeton). Emitted signals passed through a 510±20 band pass filter. When the cells were treated with a solution of 200 μM Hcy, there was a rapid flux of Ca^++ that reached a plateau in about 50 seconds, and remained elevated for the duration of the 500 sec measurement interval as shown in FIGS. 8A and 8B. Similar results have been found with adult rabbit aortic smooth muscle cells, as set forth below.

For data set [6] the following is noted: high doses; cited from earlier work.

Each structure is given as a SMILES string. Entries after “also recorded” stand apart in the source; their conditions may differ. Where two headings read alike, the source gives them in different places.

The text below walks through data of patent US6469027B1, “N-methyl-D-aspartate (NMDA) receptor blockers for the prevention of atherosclerosis” (The Board of Regents of the University of Nebraska, priority 1996, dated 2002).

As for `O=C(O)[C@@H]1C[C@H](CP(=O)(O)O)CCN1` [CGS 19755], the “effect on NMDA and homocysteine DNA synthesis responses” value with TA-VSMCs is listed as “blocked”. The “effect on homocysteine-induced c-myb induction” value is listed as “blocked” in the data set with c-myb [1] and “block” with c-myb [1] (listed as CGS19755). Further, the “effect on homocysteine effect on c-myb expression” value in the data set on c-myb [2] is “blocked”. Besides, the entries for the “effect on homocysteine-induced cell proliferation” value with N-VSMC [3] and in the data set with N-VSMC [3] (listed as CGS19755) were “inhibited; also recorded: no increase in cell proliferation” and “block”, respectively.

Consider `CCO` [ethanol], for which the “effect on pharmacological effect of homocysteine in VSMC” value with VSMC is “completely blocked”.

`CN[C@H](CC(=O)O)C(=O)O` [NMDA, N-methyl D-aspartate acid]: the “[3H] thymidine increased” value in the data set with TA-VSMCs (incubated with NMDA) was determined as 2 fold. Also, in the data set on N-VSMC [4], the “activation of the same responses as H[cys]” value is reported as “do not significantly activate”. Moreover, the “[3H] thymidine incorporation stimulated” value in the data set with N-VSMC [4] (10 mM) was determined as 2 fold. The “expression of Myb, agonist per se” value with c-myb [1] (embryonic smooth muscle cells) is “did not induce”.

Take `O=C(O)CN(CCOCCOCCN(CC(=O)O)CC(=O)O)CC(=O)O` [EGTA]: in the data set with TA-VSMCs (chelation of extra cellular Ca2+ by addition to the medium), the “effect on stimulation of DNA synthesis” value is “prevented”.

Turning to `C[C@]12N[C@H](Cc3ccccc31)c1ccccc12` [MK-801], the “effect on NMDA and homocysteine DNA synthesis responses” value in the data set on TA-VSMCs is reported as “blocked”. Further, the “effect on homocysteine-induced c-myb induction” value in the data set on c-myb [1] is reported as “completely suppressed; also recorded: block”. For the same molecule, the “effect on homocysteine effect on c-myb expression” value in the data set with c-myb [2] is recorded as “blocked”. For the same molecule, the “effect on homocysteine-induced cell proliferation” value in the data set with N-VSMC [3] is “inhibited”; with N-VSMC [3] (listed as Mk-801) it was “block”. The “effect on Hcy-induced Ca++ influx” value in data set [5] is reported as “prevented”.

As for `N[C@@H](CCC(=O)O)C(=O)O` [glutamate, L-glutamate], in the data set on N-VSMC [4], the “activation of the same responses as H[cys]” value is listed as “do not significantly activate”. Also, the “[3H] thymidine incorporation stimulated” value in the data set with N-VSMC [4] (10 mM) came out at 2 fold.

`COc1ccc2c(c[n+](C)c3c4cc5c(cc4ccc23)OCO5)c1OC.[Cl-]` [cheleyrthrine chloride]: in the data set on N-VSMC [3], the “effect on increase in cell number in the presence of H[cys]” value is listed as “blocked” and the “cell damage after treatment for ten days” value is “did not permanently damage the cells”.

On to `CN[C@@H]1C[C@H]2O[C@@](C)([C@@H]1OC)n1c3ccccc3c3c4c(c5c6ccccc6n2c5c31)C(=O)NC4` [staurosporine], for which, in the data set on N-VSMC [3], the “effect on increase in cell number in the presence of H[cys]” value is listed as “blocked” and the “cell damage after treatment for ten days” value is listed as “did not permanently damage the cells”.

In the case of `N[C@@H](CCS(=O)(=O)O)C(=O)O` [homocysteic acid], the “[3H] thymidine incorporation stimulated” value with N-VSMC [4] (1 mM) is reported as 2 fold.

Turning to `COc1ccc2c(c1)[C@]13CCCC[C@@H]1[C@H](C2)N(C)CC3` [dextromethorphan], in data set [6], the side effects result is “drowsiness, nausea, and decreased coordination”.
